Measured values: patent US20230270713A1, “Administration of Resiniferatoxin For Treatment of Bladder Pain or Bladder Cancer” (Sorrento Therapeutics, Inc., priority 2020, published 2023)

How the values were obtained:
dogs with bladder cancer = assay: Lower urinary tract symptom scale in dogs with bladder cancer (Example D); type: in vivo, dog; details: 1.0 or 2.0 ug/ml intravesical
Description: (§1) Dogs with bladder cancer were treated with RTX as follows. Under general anesthesia, RTX was infused directly into the bladder using a foley catheter. RTX remained in the bladder for 30 minutes before removal.
6 dogs were enrolled and treated at the following doses: • <10 kg: RTX 25 ug diluted in 24 ml NaCl (1.0 ug/ml solution) • >10 kg: RTX 50 ug diluted in 48 ml NaCl (1.0 ug/ml solution)
7 dogs were then enrolled and treated at the following doses: • <10 kg: RTX 25 ug diluted in 11.5 ml NaCl (2.0 ug/ml solution) • 10-25 kg: RTX 50 ug diluted in 23 ml NaCl (2.0 ug/ml solution) • >25 kg: RTX 100 ug diluted in 46 ml NaCl (2.0 ug/ml solution)
Three dogs were treated twice with at least 28 days between treatments. Two dogs were lost to follow-up after day 0.
(§2) The primary endpoint was assessment of improvement of lower urinary tract signs with a 4-point lower urinary tract symptom scale (character of urination/degree of straining; frequency of urination (daytime); frequency of urination (nighttime); and blood in urine). The secondary endpoints were anti-cancer effect, as measured by bladder ultrasound, and quality of life.

bladder cancer (TCC) = assay: Preliminary anti-cancer effect by bladder ultrasound in dogs with bladder cancer (Example D); type: in vivo, dog
Description: as §1, §2

[1] = tested on: cats with FIC (Feline Idiopathic Cystitis); assay: VSOM and Cystitis Events Survey combined effect in FIC cats; type: in vivo, cat; details: for Cystitis ≥2 and VSOM ≥2 Point success, cats n/N / Cystitis ≥3 and VSOM ≥2 Point success, cats n/N / Cystitis ≥3 and VSOM ≥2 Point success, percent of cats / Cystitis ≥2 and VSOM ≥2 Point success, percent of cats: Day 28
Description: Treatment success was defined as “a reduction of at least 2 in total VSOM score at Day 3 and 28 compared to VSOM score at day 0.” A decrease of less than 2, no change, or an increase in total score was defined as treatment failure. Cats presenting an increase in any individual VSOM score were considered a treatment failure regardless of total VSOM score.
The use of the Cystitis Events Survey was exploratory, and no strict definition of success was applied to the results. However, and based on published literature, the results were described as follows: (1) percentage of cats per cohort with an average improvement of 2 or more points and no increase in any individual score on Day 28; and (2) percentage of cats per cohort with an average improvement of 3 or more points and no increase in any individual score on Day 28.
When the results were combined for VSOM improvement of ≥2 and cystitis improvement of ≥3, the effectiveness decreased from 100% to 80% (see Cohort 1). […] Overall, the decrease was approximately 20% in Cohorts 1-2.

[2] = tested on: cats with FIC (Feline Idiopathic Cystitis); assay: VSOM in cats with Feline Idiopathic Cystitis; type: in vivo, cat; details: for VSOM treatment failure, number of cats / VSOM treatment failure, percent of cats: Day 28 vs Day 0
[3] = 6.25 μg (0.25 μg/mL), Day 0, n 6
[4] = 6.25 μg (0.25 μg/mL), Day 28, n 6
[5] = 12.5 μg (0.5 μg/mL), Day 0, n 6
[6] = 12.5 μg (0.5 μg/mL), Day 28, n 5
[7] = 12.5 μg (1.25 μg/mL), Day 0, n 6
[8] = 12.5 μg (1.25 μg/mL), Day 28, n 6

With C=C(C)[C@]12C[C@@H](C)[C@@]34O[C@](Cc5ccccc5)(O[C@@H]1[C@@H]3C=C(COC(=O)Cc1ccc(O)c(OC)c1)C[C@]1(O)C(=O)C(C)=C[C@@H]41)O2 [RTX, resiniferatoxin] the “Improvement of at Least 1 Score, percent of dogs” value (dogs with bladder cancer; Day 7, n = 11) was 54.5%, the “Improvement of at Least 2 Scores, percent of dogs” value (dogs with bladder cancer; Day 7, n = 11) was 36.4% and the “Improvement of at least 1 score (lower urinary tract symptom scale), number of dogs” value (dogs with bladder cancer; Day 7, n = 11) was 6. For the same compound, the “Improvement of at least 2 scores (lower urinary tract symptom scale), number of dogs” value (dogs with bladder cancer; Day 7, n = 11) was 4, the “Improvement of at Least 1 Score, percent of dogs” value (dogs with bladder cancer; Day 14, n = 11) was 72.7% and the “Improvement of at Least 2 Scores, percent of dogs” value (dogs with bladder cancer; Day 14, n = 11) was 45.5%. For the same compound, the “Improvement of at least 1 score (lower urinary tract symptom scale), number of dogs” value (dogs with bladder cancer; Day 14, n = 11) was 8, the “Improvement of at least 2 scores (lower urinary tract symptom scale), number of dogs” value (dogs with bladder cancer; Day 14, n = 11) was 5 and the “Improvement of at Least 1 Score, percent of dogs” value (dogs with bladder cancer; Day 28, n = 8) was 75.0%. The “Improvement of at Least 2 Scores, percent of dogs” value (dogs with bladder cancer; Day 28, n = 8) was 50.0%, the “Improvement of at least 1 score (lower urinary tract symptom scale), number of dogs” value (dogs with bladder cancer; Day 28, n = 8) was 6 and the “Improvement of at least 2 scores (lower urinary tract symptom scale), number of dogs” value (dogs with bladder cancer; Day 28, n = 8) was 4. The “Improvement of at Least 1 Score, percent of dogs” value (dogs with bladder cancer; Day 56, n = 5) was 100%, the “Improvement of at Least 2 Scores, percent of dogs” value (dogs with bladder cancer; Day 56, n = 5) was 60.0% and the “Improvement of at least 1 score (lower urinary tract symptom scale), number of dogs” value (dogs with bladder cancer; Day 56, n = 5) was 5. The “Improvement of at least 2 scores (lower urinary tract symptom scale), number of dogs” value (dogs with bladder cancer; Day 56, n = 5) was 3, the “Improvement of at Least 1 Score, percent of dogs” value (dogs with bladder cancer; Day 84, n = 3) was 100% and the “Improvement of at Least 2 Scores, percent of dogs” value (dogs with bladder cancer; Day 84, n = 3) was 66.7%. For the same compound, the “Improvement of at least 1 score (lower urinary tract symptom scale), number of dogs” value (dogs with bladder cancer; Day 84, n = 3) was 3, the “Improvement of at least 2 scores (lower urinary tract symptom scale), number of dogs” value (dogs with bladder cancer; Day 84, n = 3) was 2 and the “Best overall tumor response: change in largest tumor diameter” value (bladder cancer (TCC); Case 03-01, 9.0 kg dog, 25 ug (2.8 ug/kg), Day 84) was −30%. For the same compound, the “Best Overall Response: tumor volume” value (bladder cancer (TCC); Case 41-02, 38.8 kg dog, 50 ug (1.3 ug/kg) dosed twice 28 days apart, Day 28) was −24%, the “Cystitis ≥2 and VSOM ≥2 Point success, cats n/N” value ([1]; 6.25 μg/25 mL (Cohort 2)) was 3/6 and the “Cystitis ≥3 and VSOM ≥2 Point success, cats n/N” value ([1]; 6.25 μg/25 mL (Cohort 2)) was 2/6. For the same compound, the “Cystitis ≥3 and VSOM ≥2 Point success, percent of cats” value ([1]; 6.25 μg/25 mL (Cohort 2)) was “(33.3%)”, the “Cystitis ≥2 and VSOM ≥2 Point success, cats n/N” value ([1]; 12.5 μg/10 mL (Cohort 4)) was 4/6 and the “Cystitis ≥2 and VSOM ≥2 Point success, percent of cats” value ([1]; 12.5 μg/10 mL (Cohort 4)) was “(66.7%)”. The “Cystitis ≥3 and VSOM ≥2 Point success, cats n/N” value ([1]; 12.5 μg/10 mL (Cohort 4)) was 4/6, the “Cystitis ≥3 and VSOM ≥2 Point success, percent of cats” value ([1]; 12.5 μg/10 mL (Cohort 4)) was “(66.7%)” and the “Cystitis ≥2 and VSOM ≥2 Point success, cats n/N” value ([1]; 12.5 μg/25 mL (Cohort 3)) was 6/6. The “Cystitis ≥2 and VSOM ≥2 Point success, percent of cats” value ([1]; 12.5 μg/25 mL (Cohort 3)) was “(100%)”, the “Cystitis ≥3 and VSOM ≥2 Point success, cats n/N” value ([1]; 12.5 μg/25 mL (Cohort 3)) was 6/6 and the “Cystitis ≥3 and VSOM ≥2 Point success, percent of cats” value ([1]; 12.5 μg/25 mL (Cohort 3)) was “(100%)”. For the same compound, the “Cystitis ≥2 and VSOM ≥2 Point success, cats n/N” value ([1]; 25 μg/25 mL (Cohort 1)) was 4/5, the “Cystitis ≥2 and VSOM ≥2 Point success, percent of cats” value ([1]; 25 μg/25 mL (Cohort 1)) was “(80%)” and the “Cystitis ≥3 and VSOM ≥2 Point success, cats n/N” value ([1]; 25 μg/25 mL (Cohort 1)) was 4/5. For the same compound, the “decrease in effectiveness when VSOM and cystitis results are combined” value ([1]; Cohorts 1-2, overall) was “approximately 20%”, the “VSOM, Maximum” value [2, 3] was 12.0 and the “VSOM, Mean” value [2, 3] was 10.00. For the same compound, the “VSOM, Median” value [2, 3] was 10.00, the “VSOM, Minimum” value [2, 3] was 8.0 and the “VSOM, Maximum” value [2, 4] was 10.0. The “VSOM, Mean” value [2, 4] was 6.00, the “VSOM, Median” value [2, 4] was 6.50 and the “VSOM, Minimum” value [2, 4] was 1.0. The “VSOM, Maximum” value [2, 5] was 12.0, the “VSOM, Mean” value [2, 5] was 9.67 and the “VSOM, Median” value [2, 5] was 9.50. The “VSOM, Minimum” value [2, 5] was 8.0, the “VSOM, Maximum” value [2, 6] was 4.0 and the “VSOM, Mean” value [2, 6] was 1.60. For the same compound, the “VSOM, Median” value [2, 6] was 1.00, the “VSOM, Minimum” value [2, 6] was 0.0 and the “VSOM, Maximum” value [2, 7] was 10.0. The “VSOM, Mean” value [2, 7] was 9.83, the “VSOM, Median” value [2, 7] was 10.00 and the “VSOM, Minimum” value [2, 7] was 9.0. The “VSOM, Maximum” value [2, 8] was 6.0, the “VSOM, Mean” value [2, 8] was 3.83 and the “VSOM, Median” value [2, 8] was 4.00. The “VSOM, Minimum” value [2, 8] was 2.0, the “VSOM, Mean” value ([2]; 25 μg (1 μg/mL), Day 0, n 6) was 10.00 and the “VSOM, Median” value ([2]; 25 μg (1 μg/mL), Day 0, n 6) was 10.00. For the same compound, the “VSOM, Minimum” value ([2]; 25 μg (1 μg/mL), Day 0, n 6) was 9.0, the “VSOM, Maximum” value ([2]; 25 μg (1 μg/mL), Day 28, n 5) was 4.0 and the “VSOM, Mean” value ([2]; 25 μg (1 μg/mL), Day 28, n 5) was 1.80. The “VSOM, Median” value ([2]; 25 μg (1 μg/mL), Day 28, n 5) was 1.00, the “VSOM treatment failure, number of cats” value ([2]; Cohort 1 25 μg/25 mL) was 0 n and the “VSOM treatment failure, percent of cats” value ([2]; Cohort 1 25 μg/25 mL) was 0.0%. The “VSOM treatment failure, number of cats” value ([2]; Cohort 2 6.25 μg/25 mL) was 3 n, the “VSOM treatment failure, percent of cats” value ([2]; Cohort 2 6.25 μg/25 mL) was 50.0% and the “VSOM treatment failure, number of cats” value ([2]; Cohort 3 12.5 μg/25 mL) was 0 n. For the same compound, the “VSOM treatment failure, percent of cats” value ([2]; Cohort 3 12.5 μg/25 mL) was 0.0%, the “VSOM treatment failure, number of cats” value ([2]; Cohort 4 12.5 μg/10 mL) was 2 n and the “VSOM treatment failure, percent of cats” value ([2]; Cohort 4 12.5 μg/10 mL) was 33.3%. The “VSOM treatment failure, percent of cats” value ([2]; Overall (Cohorts 1-4)) was “(22.8%)”.
